{
  "source": "patent US8940310B2",
  "about": "“Methods of treatment using TLR7 and/or TLR9 inhibitors” (Dynavax Technologies Corporation, priority 2010, dated 2015)",
  "test_system": "human B-cells",
  "test": "Human B-cells cultured in the presence of IRPs, IL-6",
  "key": {"[1]": {"conditions": "Experiment # 4, Max Conc 4.0 uM"}, "[2]": {"conditions": "Experiment # 5, Max Conc 4.0 uM"}, "[3]": {"conditions": "Experiment # 6, Max Conc 4.0 uM"}, "[4]": {"conditions": "Experiment # 7, Max Conc 4.0 uM"}, "[5]": {"conditions": "Experiment # 8, Max Conc 2.0 uM"}, "[6]": {"conditions": "Experiment # 9, Max Conc 2.0 uM"}, "[7]": {"conditions": "Experiment # 1, Max Conc 4.0 uM"}, "[8]": {"conditions": "Experiment # 11, Max Conc 2.0 uM"}},
  "note": "[I] = hypoxanthine (inosine); d = 2'-deoxy (DNA); m = 2'-O-methyl",
  "procedure": "For the human B-cell assay, B-cells were purified from total blood cells obtained from healthy donors using magnetic beads (CD19 positive). Cells were resuspended in fresh medium (RPMI 1640 with 10% fetal calf serum, 50 units/mL penicillin, 50 μg/mL streptomycin, and 2 mM glutamine). At 48 hours, supernatants were collected and cytokine levels, IL-6, were measured using immunoassay.\nTo further investigate the effect of IRPs on B-cell stimulatory activity, a wide variety of IRP sequences were assayed for IL-6, along with positive and negative controls. The experiment was performed as described in Example 1 using doses of IRP of either 4.0 μM or 2.0 μM. The positive control was an immunostimulatory sequence (ISS) with SEQ ID NO:157. […] The results are presented as the average normalized IL-6 response over several experiments.",
  "data": [
    {"substance": "5′-TGCTCCTGGAGGGGTTGTAAGT-3′ (DNA TGCTCCTGGAGGGGTTGTAAGT; DNA, backbone and methylation of C not given here; further chemistry not fully specified) [SEQ ID NO:67]", "values": [
      {"measurement": "Normalized IL-6 Response (Percentage of Positive Control)", "setting": "[1]", "value": 8, "unit": "%"},
      {"measurement": "Normalized IL-6 Response (Percentage of Positive Control)", "setting": "[2]", "value": 7, "unit": "%"},
      {"measurement": "Normalized IL-6 Response (Percentage of Positive Control)", "setting": "[3]", "value": 4, "unit": "%"},
      {"measurement": "Normalized IL-6 Response (Percentage of Positive Control)", "setting": "[4]", "value": 8, "unit": "%"}
    ]},
    {"substance": "5′-TGCTCCTGGAGGGGTTGTAAGTTTGT-3′ (DNA TGCTCCTGGAGGGGTTGTAAGTTTGT; DNA, backbone and methylation of C not given here; further chemistry not fully specified) [SEQ ID NO:68]", "values": [
      {"measurement": "Normalized IL-6 Response (Percentage of Positive Control)", "setting": "[2]", "value": 12, "unit": "%"},
      {"measurement": "Normalized IL-6 Response (Percentage of Positive Control)", "setting": "[3]", "value": 6, "unit": "%"}
    ]},
    {"substance": "5′-TGC TCC TGG AGG GGT TGT-HEG-HEG-3′ (DNA TGCTCCTGGAGGGGTTGTNN; 3' HEG-HEG, chemistry not fully specified) [SEQ ID NO:141]", "values": [
      {"measurement": "Normalized IL-6 Response (Percentage of Positive Control)", "setting": "[1]", "value": 8, "unit": "%"},
      {"measurement": "Normalized IL-6 Response (Percentage of Positive Control)", "setting": "[4]", "value": 8, "unit": "%"}
    ]},
    {"substance": "5′-TGC TCC TTG AGG GGT TGT-3′ (DNA TGCTCCTTGAGGGGTTGT; DNA, backbone not given here; further chemistry not fully specified) [SEQ ID NO:69]", "values": [
      {"measurement": "Normalized IL-6 Response (Percentage of Positive Control)", "setting": "[1]", "value": 11, "unit": "%"},
      {"measurement": "Normalized IL-6 Response (Percentage of Positive Control)", "setting": "[4]", "value": 11, "unit": "%"}
    ]},
    {"substance": "5′-TGC TCC TTG AGI GGT TGT-3′ (DNA TGCTCCTTGAGNGGTTGT; DNA, [I] at 12, backbone not given here) [SEQ ID NO:71]", "values": [
      {"measurement": "Normalized IL-6 Response (Percentage of Positive Control)", "setting": "[1]", "value": 12, "unit": "%"},
      {"measurement": "Normalized IL-6 Response (Percentage of Positive Control)", "setting": "[2]", "value": 15, "unit": "%"},
      {"measurement": "Normalized IL-6 Response (Percentage of Positive Control)", "setting": "[3]", "value": 10, "unit": "%"},
      {"measurement": "Normalized IL-6 Response (Percentage of Positive Control)", "setting": "[4]", "value": 12, "unit": "%"},
      {"measurement": "Normalized IL-6 Response (Percentage of Positive Control)", "setting": "[5]", "value": 4, "unit": "%"},
      {"measurement": "Normalized IL-6 Response (Percentage of Positive Control)", "setting": "[6]", "value": 14, "unit": "%"}
    ]},
    {"substance": "5′-TGCTGCTCCTGGAGGGGTTGTTTGT-3′ (DNA TGCTGCTCCTGGAGGGGTTGTTTGT; DNA, backbone and methylation of C not given here; further chemistry not fully specified) [SEQ ID NO:57]", "values": [
      {"measurement": "Normalized IL-6 Response (Percentage of Positive Control)", "setting": "[2]", "value": 22, "unit": "%"},
      {"measurement": "Normalized IL-6 Response (Percentage of Positive Control)", "setting": "[3]", "value": 17, "unit": "%"}
    ]},
    {"substance": "5′-TGCTGCTCCTGGAGGGGTTGT-3′ (DNA TGCTGCTCCTGGAGGGGTTGT; DNA, backbone and methylation of C not given here; further chemistry not fully specified) [SEQ ID NO:60]", "values": [
      {"measurement": "Normalized IL-6 Response (Percentage of Positive Control)", "setting": "[1]", "value": 10, "unit": "%"},
      {"measurement": "Normalized IL-6 Response (Percentage of Positive Control)", "setting": "[4]", "value": 10, "unit": "%"}
    ]},
    {"substance": "5′-TGC TGC TCC TGG AGI GGT TGT AAG T-3′ (DNA TGCTGCTCCTGGAGNGGTTGTAAGT; DNA, [I] at 15, backbone and methylation of C not given here) [SEQ ID NO:78]", "values": [
      {"measurement": "Normalized IL-6 Response (Percentage of Positive Control)", "setting": "[7]", "value": 26, "unit": "%"},
      {"measurement": "Normalized IL-6 Response (Percentage of Positive Control)", "setting": "[8]", "value": 29, "unit": "%"}
    ]},
    {"substance": "5′-TGC TGC TCC TGG AGI GGT TGT-3′ (DNA TGCTGCTCCTGGAGNGGTTGT; DNA, [I] at 15, backbone and methylation of C not given here) [SEQ ID NO:66]", "values": [
      {"measurement": "Normalized IL-6 Response (Percentage of Positive Control)", "setting": "[7]", "value": 20, "unit": "%"},
      {"measurement": "Normalized IL-6 Response (Percentage of Positive Control)", "setting": "[6]", "value": 18, "unit": "%"}
    ]},
    {"substance": "5′-TGCTGCTCCTTGAGGGGTTGTTTGT-3′ (DNA TGCTGCTCCTTGAGGGGTTGTTTGT; DNA, backbone and methylation of C not given here; further chemistry not fully specified) [SEQ ID NO:58]", "values": [
      {"measurement": "Normalized IL-6 Response (Percentage of Positive Control)", "setting": "[2]", "value": 33, "unit": "%"},
      {"measurement": "Normalized IL-6 Response (Percentage of Positive Control)", "setting": "[3]", "value": 29, "unit": "%"}
    ]},
    {"substance": "5′-TGCTGCTCCTTGAGGGGTTGT-3′ (DNA TGCTGCTCCTTGAGGGGTTGT; DNA, backbone and methylation of C not given here; further chemistry not fully specified) [SEQ ID NO:59]", "values": [
      {"measurement": "Normalized IL-6 Response (Percentage of Positive Control)", "setting": "[1]", "value": 12, "unit": "%"},
      {"measurement": "Normalized IL-6 Response (Percentage of Positive Control)", "setting": "[4]", "value": 12, "unit": "%"}
    ]},
    {"substance": "5′-TGC TGC TCC TTG AGI GGT GTT GT (DNA TGCTGCTCCTTGAGNGGTGTTGT; DNA, [I] at 15, backbone not given here) [SEQ ID NO:179]", "values": [
      {"measurement": "Normalized IL-6 Response (Percentage of Positive Control)", "setting": "[8]", "value": 40, "unit": "%"}
    ]},
    {"substance": "5′-TGC TGC TCC TTG AGI GGT TGT AAG T (DNA TGCTGCTCCTTGAGNGGTTGTAAGT; DNA, [I] at 15, backbone not given here) [SEQ ID NO:181]", "values": [
      {"measurement": "Normalized IL-6 Response (Percentage of Positive Control)", "setting": "[8]", "value": 38, "unit": "%"}
    ]},
    {"substance": "5′-TGC TGC TCC TTG AGI GGT TGT TTG T-3′ (DNA TGCTGCTCCTTGAGNGGTTGTTTGT; DNA, [I] at 15, backbone and methylation of C not given here) [SEQ ID NO:62]", "values": [
      {"measurement": "Normalized IL-6 Response (Percentage of Positive Control)", "setting": "[1]", "value": 49, "unit": "%"},
      {"measurement": "Normalized IL-6 Response (Percentage of Positive Control)", "setting": "[4]", "value": 49, "unit": "%"}
    ]},
    {"substance": "5′-TGCTTGTCCTGGAGGGGTTGT (DNA TGCTTGTCCTGGAGGGTTGT; listed as DNA, chemistry not fully specified) [SEQ ID NO:204]", "values": [
      {"measurement": "Normalized IL-6 Response (Percentage of Positive Control)", "setting": "[1]", "value": 9, "unit": "%"}
    ]},
    {"substance": "5′-TGC TTG TCC TGG AGI GGT GTT GT-3′ (DNA TGCTTGTCCTGGAGNGGTGTTGT; DNA, [I] at 15, backbone not given here) [SEQ ID NO:65]", "values": [
      {"measurement": "Normalized IL-6 Response (Percentage of Positive Control)", "setting": "[7]", "value": 38, "unit": "%"},
      {"measurement": "Normalized IL-6 Response (Percentage of Positive Control)", "setting": "[6]", "value": 21, "unit": "%"}
    ]},
    {"substance": "5′-TGC TTG TCC TGG AGI GGT TGT AAG T-3′ (DNA TGCTTGTCCTGGAGNGGTTGTAAGT; DNA, [I] at 15, backbone and methylation of C not given here) [SEQ ID NO:64]", "values": [
      {"measurement": "Normalized IL-6 Response (Percentage of Positive Control)", "setting": "[7]", "value": 33, "unit": "%"},
      {"measurement": "Normalized IL-6 Response (Percentage of Positive Control)", "setting": "[5]", "value": 19, "unit": "%"}
    ]},
    {"substance": "5′-TGC TTG TCC TGG AGI GGT TGT-3′ (DNA TGCTTGTCCTGGAGNGGTTGT; DNA, [I] at 15, backbone and methylation of C not given here) [SEQ ID NO:74]", "values": [
      {"measurement": "Normalized IL-6 Response (Percentage of Positive Control)", "setting": "[7]", "value": 21, "unit": "%"},
      {"measurement": "Normalized IL-6 Response (Percentage of Positive Control)", "setting": "Experiment # 2, Max Conc 4.0 uM", "value": 25, "unit": "%"},
      {"measurement": "Normalized IL-6 Response (Percentage of Positive Control)", "setting": "[6]", "value": 23, "unit": "%"}
    ]},
    {"substance": "5′-TGCTTGTCCTGGAGGGGTTGT-3′ (DNA, backbone not given here; further chemistry not fully specified) [SEQ ID NO:43]", "values": [
      {"measurement": "Normalized IL-6 Response (Percentage of Positive Control)", "setting": "[4]", "value": 9, "unit": "%"}
    ]},
    {"substance": "5′-UGC CAA TCC TGG AGI GGT GTT GT (DNA UGCCAATCCTGGAGNGGTGTTGT; sugars from the 5' end m3 d20, [I] at 15, backbone not given here) [SEQ ID NO:135]", "values": [
      {"measurement": "Normalized IL-6 Response (Percentage of Positive Control)", "setting": "[5]", "value": 42, "unit": "%"}
    ]},
    {"substance": "5′-UGC HEG TCC TGG AGI GGT GTT GT (DNA NNNNTCCTGGAGNGGTGTTGT; HEG spacer, inosine, chemistry not fully specified) [SEQ ID NO:77]", "values": [
      {"measurement": "Normalized IL-6 Response (Percentage of Positive Control)", "setting": "Experiment # 3, Max Conc 4.0 uM", "value": 24, "unit": "%"}
    ]},
    {"substance": "5′-UGC TCC TGG AGG GGT TGT (DNA NNNTCCTGGAGGGGTTGT; listed as DNA, chemistry not fully specified) [SEQ ID NO:83]", "values": [
      {"measurement": "Normalized IL-6 Response (Percentage of Positive Control)", "setting": "[1]", "value": 6, "unit": "%"},
      {"measurement": "Normalized IL-6 Response (Percentage of Positive Control)", "setting": "[4]", "value": 6, "unit": "%"}
    ]},
    {"substance": "5′-UGC TCC TGG AGG GGU UGU (DNA UGCTCCTGGAGGGGUUGU; sugars from the 5' end m3 d11 m4, backbone not given here) [SEQ ID NO:85]", "values": [
      {"measurement": "Normalized IL-6 Response (Percentage of Positive Control)", "setting": "[1]", "value": 18, "unit": "%"},
      {"measurement": "Normalized IL-6 Response (Percentage of Positive Control)", "setting": "[4]", "value": 18, "unit": "%"}
    ]}
  ]
}
